Measurements published in ChEMBL document CHEMBL1201862, “PubChem BioAssay data set” (2004).
The source made the active and inactive calls.

How the values were obtained:
[1] = Shn3 3'UTR reporter inhibitors, dose response, cell-based, Clone20 osteoblasts, firefly luciferase, cherry-picked (AID 624132); type: functional;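 note: firefly luciferase luminescence from reporter carrying the Shn3 3'UTR in osteoblasts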
[2] = reduction of Shn3 3'UTR firefly luciferase signal, dose response, Schnurri-3 inhibitor project, cell-based, Clone20 osteoblasts, cherry-pick, set 2 (AID 720490); type: functional;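 note: actives lower the luminescence signal as inhibitors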
[3] = cytotoxicity dependent on PAX8, dose response, cell-based, plate reader, dry powder (AID 743049); type: functional
[4] = IGROV1 ovarian cancer cell cytotoxicity, dose response, PAX8 inhibitor project, plate reader, dry powder samples (AID 743043); type: functional, cell-based; details: IGROV-1
[5] = PAX2 cell-based inhibition, dose response, selectivity assay for PAX8 inhibitor project, plate reader, dry powder samples (AID 743048); type: functional;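 note: HEK293 cells carrying a WT1 promoter luciferase reporter driven by expressed Pax2; potency is for inhibition of Pax2 driven reporter signal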
[6] = cytotoxicity in COV434 cells, dose response, cytotoxicity control for PAX8 inhibitor project, cell-based, plate reader, dry powder, SA7 (AID 743145); type: functional
[7] = NIH:OVCAR-3 ovarian cancer cell cytotoxicity, dose response, PAX8 inhibitor project, plate reader, dry powder samples (AID 743044); type: functional, cell-based
[8] = A2780 ovarian cancer cell cytotoxicity, dose response, cytotoxicity control, plate reader, dry powder samples (AID 743046); type: functional, cell-based
[9] = IOSE-T80 ovarian epithelial cell cytotoxicity, dose response, cytotoxicity control for PAX8 inhibitor project, plate reader, dry powder samples (AID 743045); type: functional, cell-based
[10] = cytotoxicity in OVCAR4 cells, dose response, cytotoxicity control for PAX8 inhibitor project, cell-based, plate reader, dry powder, SA11 (AID 743150); type: functional; details: OVCAR-4
Paired box protein Pax-8 = Paired box protein Pax-8 (Homo sapiens, UniProt Q06710); assay: inhibitors of PAX8-driven TPO luciferase reporter, dose response, RMG-I cells, cherry-pick (AID 687027); type: functional, cell-based;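 note: luciferase reporter driven by Pax8 target thyroperoxidase promoter measured by SteadyGlo luminescence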
[11] = cytotoxicity in COV362 ovarian cancer cells, dose response, cytotoxicity control for PAX8 inhibitor project, cell-based, plate reader, dry powder, SA12 (AID 743144); type: functional
[12] = PAX5 activity inhibitors, dose response, selectivity assay for PAX8 inhibitor project, cell-based, plate reader, dry powder samples (AID 743047); type: functional;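 note: HEK293 cells carrying a Pax5 driven CD19 promoter luciferase reporter; potency of inhibitors that lower reporter luminescence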
[13] = cytotoxicity in OV-90 ovarian cancer cells, dose response, PAX8 inhibitor project, cell-based, plate reader, dry powder, SA8 (AID 743149); type: functional
[14] = biological target: Endoplasmic reticulum aminopeptidase 1 (Homo sapiens, UniProt Q9NZ08); assay: ERAP1 aminopeptidase inhibitors, dose response, biochemical, cherry-pick, set 2, plate reader (AID 743314)
[15] = HEp-2 cell cytotoxicity, dose response, cytotoxicity control for RSV inhibitor project, HTS (AID 2410); type: functional; details: human respiratory syncytial virus
Major prion protein = Major prion protein (Homo sapiens, UniProt P04156); type: functional, cell-based
[16] = biological target: T1, High affinity choline transporter 1 (Homo sapiens, UniProt Q9GZV3); assay: CHT inhibitors, dose response, cell-based, 5-point CRC, membrane potential dye (AID 504840); type: functional
T1 sequence (Q9GZV3 whole entry): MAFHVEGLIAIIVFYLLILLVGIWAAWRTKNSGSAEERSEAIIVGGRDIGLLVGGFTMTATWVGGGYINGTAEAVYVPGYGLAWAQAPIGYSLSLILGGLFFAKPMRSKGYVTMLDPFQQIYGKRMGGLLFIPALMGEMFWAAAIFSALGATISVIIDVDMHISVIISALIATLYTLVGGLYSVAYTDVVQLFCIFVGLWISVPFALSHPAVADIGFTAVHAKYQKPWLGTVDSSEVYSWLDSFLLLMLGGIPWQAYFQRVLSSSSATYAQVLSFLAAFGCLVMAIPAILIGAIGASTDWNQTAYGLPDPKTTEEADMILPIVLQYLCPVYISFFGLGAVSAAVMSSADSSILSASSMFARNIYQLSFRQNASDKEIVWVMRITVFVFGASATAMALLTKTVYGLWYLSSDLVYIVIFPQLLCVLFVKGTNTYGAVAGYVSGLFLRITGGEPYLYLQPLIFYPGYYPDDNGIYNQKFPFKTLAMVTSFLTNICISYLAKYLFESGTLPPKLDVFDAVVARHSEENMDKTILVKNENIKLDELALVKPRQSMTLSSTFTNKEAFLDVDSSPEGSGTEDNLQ

Beta-lactamase [17] = biological target: T2, Beta-lactamase (Pseudomonas aeruginosa, UniProt Q79MP6); assay: IMP-1 metallo-beta-lactamase inhibitors, dose response, selectivity assay for VIM-2 inhibitor project, biochemical, epi-absorbance (AID 1920)
[18] = biological target: T1, High affinity choline transporter 1; assay: CHT inhibitors, dose response, cell-based, 10-point CRC, membrane potential dye (AID 588401); type: functional;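 note: membrane potential dye fluorescence of choline-evoked depolarization via CHT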
Beta-lactamase [19] = biological target: Beta-lactamase (Salmonella choleraesuis (strain SC-B67), UniProt Q5J463); assay: Epi-absorbance-based counterscreen for selective VIM-2 inhibitors: dose response biochemical high throughput screening assay to identify inhibitors of TEM-1 serine-beta-lactamase.
Estrogen receptor = biological target: T3, Estrogen receptor (Homo sapiens, UniProt P03372);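 note: potency for inhibiting coactivator peptide recruitment to the receptor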
T3 sequence (P03372 whole entry): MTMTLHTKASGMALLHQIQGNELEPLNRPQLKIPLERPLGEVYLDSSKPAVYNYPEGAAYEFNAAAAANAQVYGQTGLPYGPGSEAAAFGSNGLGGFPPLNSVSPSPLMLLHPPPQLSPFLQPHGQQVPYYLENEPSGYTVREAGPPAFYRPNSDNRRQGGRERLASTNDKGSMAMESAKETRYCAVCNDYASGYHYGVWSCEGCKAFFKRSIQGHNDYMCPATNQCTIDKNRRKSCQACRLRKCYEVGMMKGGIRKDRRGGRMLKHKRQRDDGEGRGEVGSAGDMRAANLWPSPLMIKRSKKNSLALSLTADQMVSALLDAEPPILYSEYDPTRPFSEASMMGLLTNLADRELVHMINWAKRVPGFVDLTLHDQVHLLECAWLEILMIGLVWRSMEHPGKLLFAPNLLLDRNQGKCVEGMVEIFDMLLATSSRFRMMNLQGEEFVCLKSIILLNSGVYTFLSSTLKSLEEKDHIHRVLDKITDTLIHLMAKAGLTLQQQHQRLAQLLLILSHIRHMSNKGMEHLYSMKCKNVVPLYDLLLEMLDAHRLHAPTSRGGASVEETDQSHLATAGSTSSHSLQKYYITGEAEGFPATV

Beta-lactamase [20] = biological target: T2, Beta-lactamase; assay: […] counterscreen for selective VIM-2 inhibitors: dose response biochemical high throughput screening assay to identify inhibitors of IMP-1 metallo-beta-lactamase.
[21] = biological target: COUP transcription factor 2 (Homo sapiens, UniProt P24468); assay: Luminescence-based cell-based high throughput dose response assay to identify inhibitors of COUP-TFII (NR2F2).; type: functional;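 note: HEK293 cells transiently cotransfected with COUP-TFII expression vector and reporter; luciferase reporter luminescence driven by COUP-TFII from the pX2-168 reporter plasmid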

Which AC50 [1] does the source give for `COc1ccc(CNC(=O)C(c2ccc(C)cc2)N(Cc2cccs2)C(=O)c2ccc3c(c2)OCCO3)cc1` (stereo not given) here?
Its AC50 is 8.1 µM (active).

And the AC50 [2]?
The AC50 was 13.8 µM (active).

For `COc1ccc(/C=C/C(=O)c2cc(F)ccc2OC(=O)c2ccccc2C)cc1OC`, which AC50 [3] is on record?
Its AC50 is 5.56 µM (active).

And the AC50 [4]?
The AC50 was 3.26 µM (active).

And the AC50 [5]?
The AC50 was > 100 µM (inactive).

And the AC50 [6]?
The AC50 was 1.79 µM (active).

And the AC50 [7]?
Its AC50 is 13.2 µM (active).

What about the AC50 [8] of the same compound?
Its AC50 is 3.22 µM (active).

And the AC50 [9]?
The AC50 was 4.08 µM (active).

What about the AC50 [10] of the same compound?
Its AC50 is 1.71 µM (active).

And the AC50 (Paired box protein Pax-8)?
The AC50 was 1.74 µM (active).

What about the AC50 [11] of the same compound?
The AC50 was 2.52 µM (active).

What about the AC50 [12] of the same compound?
The AC50 was 31.1 µM (active).

And the AC50 [13]?
Its AC50 is 4.08 µM (active).

With `COc1ccc(-c2cc3ccc(O)cc3oc2=O)cc1` as the compound, how does the AC50 [14] read?
The AC50 was 3.06 µM (active).

What about the CC50 [15] of the same compound?
The CC50 was 49.4 µM (active).

With `COc1ccc(/C=C\C(=O)NCc2ccc3c(c2)cc(C)n3C)cc1OC` as the compound, how does the IC50 (cells) read?
The IC50 was > 138 µM (inactive).

What about the IC50 (Major prion protein) of the same compound?
The IC50 was 40.3 µM (inactive).

With `Cn1ccnc1SCC(=O)Nc1ccc2nc(SCC(=O)NC3CC3)sc2c1` as the compound, how does the IC50 [16] read?
The IC50 was 4.29 µM (active).

What about the IC50 (Beta-lactamase [17]) of the same compound?
The IC50 was > 59.6 µM (inactive).

What about the IC50 [18] of the same compound?
The IC50 was 843 nM (active).

And the IC50 (Beta-lactamase [19])?
The IC50 was > 59.6 µM (inactive).

What about the IC50 (Estrogen receptor) of the same compound?
The IC50 was 25.7 µM (active).

And the IC50 (Beta-lactamase [20])?
Its IC50 is > 59.6 µM (inactive).

For `CCN(CC)S(=O)(=O)c1ccc(/C=C/C(=O)Nc2ccc(Br)cc2F)cc1`, which IC50 [21] is on record?
Its IC50 is 5.05 µM (active).
